Patent publication US20130165489A1, “Small Molecule Modulators of HIV-1 Capsid Stability and Methods Thereof” (The Trustees of the University of Pennsylvania, priority 2010, published 2013)
pIC50: −log10 of the molar value.

Tested on: HIV-1 93IN101 (subtype C clinical isolate)
Experiment: Anti-HIV efficacy in human PBMCs, isolate 93IN101
Assay type: cell-based
Procedure: HIV human peripheral blood mononuclear cell (PBMC) assays were performed as described previously (Lanier et al., 2010, Antimicrob. Agents Chemother. 54:2901-09; Ptak et al., 2008, Antimicrob. Agents Chemother. 52:1302-17). Briefly, fresh PBMCs, seronegative for HIV and hepatitis B virus (HBV), were isolated from blood samples of the screened donors (Biological Specialty Corporation, Colmar, Pa.) by using lymphocyte separation medium (LSM; density, 1.078±0.002 g/ml; Cellgro; Mediatech, Inc.) by following the manufacturer's instructions. Cells were stimulated by incubation in 4 μg/mL phytohemagglutinin (PHA; Sigma) for 48 to 72 h. Mitogenic stimulation was maintained by the addition of 20 U/mL recombinant human interleukin-2 (rhIL-2; R&D Systems, Inc.) to the culture medium. PHA-stimulated PBMCs from at least two donors were pooled, diluted in fresh medium, and added to 96-well plates at 5×10^4 cells/well. Cells were infected (final multiplicity of infection [MOI] of ≅0.1) in the presence of 9 different concentrations of test compounds (triplicate wells/concentration) and incubated for 7 days. […] Following removal of supernatant samples, compound cytotoxicity was measured by the addition of 3-(4,5-dimethylthiazol-2-yl)-5-(3-carboxymethoxyphenyl)-2-(4-sulfophenyl)-2H-tetrazolium (MTS; CellTiter 96 reagent; Promega) by following the manufacturer's instructions. […]

## O=C(O)c1ccc(-c2nc(-c3ccccc3)c(-c3ccccc3)[nH]2)cc1 [CMPD-E, 4-(4,5-diphenyl-1H-imidazol-2-yl)benzoic acid]
Human immunodeficiency virus 1, PBMC
  pIC50: 4.32
PBMC
  Antiviral index (TC50/IC50): >2.07
